Reference: EP0831877B1, “METABOLIC EFFECTS OF CERTAIN GLUTATHIONE ANALOGS” (TELIK, INC., priority 1995, dated 1996)
“And” between values parts separate entries of the source, which are not always exact repeats. Equal values may be shown once. Read-outs that look alike come from different tables or passages of the source. Marks after values point to notes of the source that are not given here.

How the values were obtained:
[1] = tested on: VLB, a vinblastine-resistant variant of SKOV-3; assay: standard clonogenic assay, potentiation of drug toxicity, VLB; type: cell-based
Method: ; SKOV-3 an ovarian carcinoma, and VLB, a vinblastine-resistant variant of SKOV-3. Four chemotherapeutic drugs, chlorambucil, adriamycin, mitomycin C and doxorubicin were used as the toxic agents. In these assays, the cells were seeded at 300 cells/well in 2 ml of medium in 6-well plates in the presence of the compounds used in the invention as the diethyl esters. […]. After incubation for 1-2 hours to permit cells to attach, varying doses of the chemotherapeutic agents were added. At least three replicate wells were plated for each test condition and the plates were incubated for two weeks. Colonies were fixed in 95% ethanol and stained with crystal violet for colony counting. IC50 values were determined for the chemotherapeutic agent in the presence or absence of the compound used in the invention and dose modification factors were calculated by dividing the IC50 value of drug without the compound by the IC50 value of the drug with the compound.

bone marrow GM-CFU [2] = tested on: bone marrow GM-CFU
Method: Bone marrows were harvested 24 hours after cisplatin administration.
Bone marrows were harvested 24 hours after administration of the second drug.

bone marrow GM-CFU [3] = assay: cyclophosphamide-induced GM-CFU suppression in mice; type: in vivo
[4] = tested on: HT-29 (human colon adenocarcinoma) cells; assay: modified clonogenic assay, potentiation of chlorambucil cytotoxicity; type: cell-based; settings: chlorambucil, mean ±S.D. of 2-3 experiments; for DMF (dose modification factor), Diethyl ester: HT-29, dose tested 12.5 µM
Method: HT-29 (human colon adenocarcinoma) cells were obtained from Dr. Roberto Ceriani (Cancer Research Fund of Contra Costa County, Walnut Creek, CA) and were used in log phase of growth unless otherwise specified. Chlorambucil (CMB) was obtained from Sigma (St. Louis, MO) and was dissolved in 100% ethanol. All GST inhibitors were dissolved in ethanol, DMSO, or water just prior to use. The same amount of solvent added to culture medium served as the vehicle control.
In a modified clonogenic assay for cytotoxicity, cells were suspended at 2 x 10^5 cells/ml in serum-free medium in the presence of vehicle or inhibitor. […] Cells were incubated for 2 hours, then varying doses of CMB were added. At the end of a second 2-hour incubation, cells were diluted to 7.5-10 x 10^3/ml in serum-containing medium and plated in quadruplicate at 200 µl/well in Microtest III microtiter plates.
Plates were incubated for 6 days and assayed by a modified methylene blue method. Briefly, cells were fixed with 1.25% glutaraldehyde in PBS then stained with 0.05% methylene blue in distilled water. Plates were washed several times in distilled water to remove unretained dye and retained dye was resolubilized in 0.03 N HCl. Plates were read at 650 nm in a Molecular Devices Vmax plate reader (Molecular Devices, Redwood City, CA). […] A dose modification factor (DMF), a measure of potentiation of cytotoxicity, was calculated for each inhibitor by dividing the IC50 value of CMB without inhibitor treatment by the IC50 value for CMB with inhibitor treatment.

[5] = tested on: normal BDF1 mouse bone marrow erythroid (BFU-E) progenitor cells; assay: colony formation, mouse bone marrow BFU-E; type: cell-based
Method: The effects are dose-dependent, usually in the range of 1.0 to 10.0 µM, and in most cases for cells stimulated by GM-CSF, G-CSF, M-CSF, Flt3/Flk-2 and Steel factor (stem cell factor/c-kit ligand). Of particular interest was the finding that TER199 enhances colony formation stimulated by combinations of cytokines. Additionally, the enhancing effect is more pronounced in human than in murine bone marrow.

bone marrow GM-CFU [6] = assay: stimulation of bone marrow GM-CFU after administration to mice; type: in vivo, B6D2F1 mice; settings: for most effective dose on bone marrow GM-CFU (Figure 4a): single treatment, harvest 24 hours
Method: In an illustrative assay three B6D2F1 mice were treated with various doses of benzyl PG intraperitoneally.
Mice in the control group were injected with water or saline. Bone marrow cells were harvested 24 hours after drug treatment and added to alpha minimum essential medium (alpha MEM) supplemented with methylcellulose (0.8% w/v), fetal bovine serum (20% v/v), deionized BSA (1% w/v), Pokeweed mitogen-stimulated spleen-cell conditioned medium (PWM-SCCM)^1 (10% v/v) and gentamycin (50 Tg/ml). One ml aliquots were plated (four replicate plates) and incubated for seven days at 37 °C. […] Spleens were removed aseptically from four male B6D2F1 mice enforced through a 200 Tm wire mesh screen to obtain a single cell suspension. Ten ml of the suspension (2-4 X 10^7 cell/ml was added to 90 ml alpha-MEM supplemented with 1% deionized BSA, 50 Tg/ml gentamicin, 0.3% freshly reconstituted pokeweed antigen, 10 µM 2-mercaptoethanol. The mixture was incubated for 5 days at […] in a 5% CO2 atmosphere and the result-ing conditioned medium was centrifuged at 800g for ten minutes and filtered through a 0.22 Tm filter. Aliquots were kept frozen at […] until use.
Bone marrow was harvested 24 hours after administering the compounds and GM-CFU levels measured as described above.

interleukin-1 (IL-1) = assay: stimulation of cytokine production in bone marrow stromal cell cultures; type: cell-based, human; settings: 100µM TER199 for one hour
Method: Human stromal cell cultures were established from freshly obtained human bone marrow as described by East, C.J. et al., Blood 5:1172 (1992). […] IL-1 levels were more than twice those of controls at both 24 and 48 hour time points.

[7] = tested on: HT4-1, a subclone of HT-29; assay: standard clonogenic assay, potentiation of drug toxicity, HT4-1
Method: Four chemotherapeutic drugs, chlorambucil, adriamycin, mitomycin C and doxorubicin were used as the toxic agents. In these assays, the cells were seeded at 300 cells/well in 2 ml of medium in 6-well plates in the presence of the compounds used in the invention as the diethyl esters. […] After incubation for 1-2 hours to permit cells to attach, varying doses of the chemotherapeutic agents were added. At least three replicate wells were plated for each test condition and the plates were incubated for two weeks. […] IC50 values were determined for the chemotherapeutic agent in the presence or absence of the compound used in the invention and dose modification factors were calculated by dividing the IC50 value of drug without the compound by the IC50 value of the drug with the compound.

peripheral blood cells = assay: effect on peripheral blood counts in rats; settings: 90 mg/kg/day x 5, i.p.
Text: Rats were divided into two groups and each group was bled on alternating days. Mean total leukocyte, absolute lymphocyte and absolute neutrophil counts increased over the study period.

[8] = in vitro half-life / metabolism in mouse blood; type: in vitro ADME
[9] = TER199 150 mg/kg p.o. 24 hours after cisplatin 20 mg/kg i.p.
[10] = HT4-1, TER199 at 25 µM, TER183 dose not given

Structure (SMILES): CCOC(=O)[C@@H](N)CCC(=O)N[C@@H](CSCc1ccccc1)C(=O)N[C@@H](C(=O)OCC)c1ccccc1 [TER199, γE ethyl ester-C(Bz)-R-(-)-ϕG ethyl ester]
- DMF for Mitomycin C ([1]; 5 µM TER199): 0.82 (5 µM TER199)^c
- DMF for Doxorubicin ([1]; TER199 at 25 µM): 2.50
- DMF for Adriamycin ([1]; TER199 at 25 µM, TER183 dose not given): 2.50
- GM-CFUs per femur (bone marrow GM-CFU [2]; TER199 60 mg/kg i.p. 24 hours before cisplatin 15 mg/kg i.p.): 62 % of control
- GM-CFU (bone marrow GM-CFU [2]; [9]): 40%
- increase in GM-CFU versus cisplatin alone (bone marrow GM-CFU [2]; [9]): 2.5 fold
- GM-CFU (bone marrow GM-CFU [2]; TER199 150 mg/kg p.o. 24 hours before cisplatin 20 mg/kg i.p.): 52 % of control
- cyclophosphamide-induced GM-CFU suppression (Figure 13, panel A) (bone marrow GM-CFU [3]; TER199 120 mg/kg, i.p. 24 hours after cyclophosphamide 200 mg/kg, i.p.): reduces GM-CFU suppression
- cyclophosphamide-induced GM-CFU suppression (Figure 13, panel B) (bone marrow GM-CFU [3]; TER199 150 mg/kg, p.o.): similarly effective
- DMF (dose modification factor), Diethyl ester [4]: 1.65
- DMF (dose modification factor), Diethyl ester ([4]; listed as γE-C(Bz)-ϕG diethyl ester): 1.65 ± 0.04
- DMF of DEE ([4]; diethyl ester): 1.651
- % change from control ([5]; EPO 1 U/ml, TER199 0.1 µM): 0%
- Colony number ([5]; EPO 1 U/ml, TER199 0.1 µM): 2±1 and 4±1
- Colony number ([5]; EPO 1 U/ml, TER199 1.0 µM): 2±1 and 3±1
- % change from control ([5]; EPO 1 U/ml, TER199 10 µM): 0%
- Colony number ([5]; EPO 1 U/ml, TER199 10 µM): 2±1 and 4±1
- Colony number ([5]; EPO + 50 ng/ml SLF, TER199 0.1 µM): 8±1 and 9±1
- Colony number ([5]; EPO + 50 ng/ml SLF, TER199 1.0 µM): 8±1 and 9±1
- Colony number ([5]; EPO + 50 ng/ml SLF, TER199 10 µM): 8±1 and 9±1
- GM-CFU (bone marrow GM-CFU [6]; 90 mg/kg intraperitoneally, marrow harvested 24 hours later, controls about 140): approximately 275 colonies/10^4 nucleated cells
- most effective dose on bone marrow GM-CFU (Figure 4a) (bone marrow GM-CFU [6]; IP administration): 60 to 90 mg/kg
- effect on GM-CFU as a function of dosage, ester/amide forms (Figure 7) (bone marrow GM-CFU [6]; bone marrow harvested 24 hours after administering): significantly more effective than the mixed ester amide (TER300)
- most effective dose on bone marrow GM-CFU (Figure 4a) (bone marrow GM-CFU [6]; oral administration): 120 to 180 mg/kg
- time of maximum stimulation of GM-CFU (Figure 5) (bone marrow GM-CFU [6]; single 60 mg/kg dose IP on day 0): day 2 and day 5
- IL-1 concentration (interleukin-1 (IL-1); 24 Hours): 323 pg/mL
- IL-1 concentration (% control) (interleukin-1 (IL-1); 24 Hours): 283 % control
- IL-1 concentration (interleukin-1 (IL-1); 48 Hours): 245 pg/mL
- IL-1 concentration (% control) (interleukin-1 (IL-1); 48 Hours): 253 % control
- survival of tumor cells treated with varying dosages of chlorambucil (Figure 1a) ([7]; 25 µM compound added to chlorambucil): survival rate is markedly diminished
- DMF for Doxorubicin ([7]; HT4-1, TER199 at 25 µM): 1.20
- DMF for Adriamycin [7, 10]: 1.2
- DMF for Chlorambucil [7, 10]: 2.39
- DMF for Mitomycin C [7, 10]: 1.03
- survival of HT4-1 cells in the presence of the compound alone (Figure 1b) ([7]; HT4-1 cells): clearly toxic
- deleterious effects on the animals (peripheral blood cells): did not appear to have any deleterious effects
- levels of circulating white blood cells (peripheral blood cells): twofold increase
- red blood cell or platelet counts (peripheral blood cells; exception: mean decrease in platelet count on day 9): no significant change
- half-life [8]: < 1 min
